The target in one assay is T1, F508del in NIH 3T3 cells (Homo sapiens, UniProt P13569, DEL508-508).
T1 construct: expressed in transfected cells
Put plainly: 3T3 assay: membrane potential optical assay for F508del correction. It counts as cell-based, mouse. As to conditions: for EC50 / 3T3 Max Activity (%): F508del NIH 3T3 cells; for EC50: compound incubation 18-24 hours at 37° C., forskolin activation, read-out: 3T3 EC50; for Emax: NIH3T3, F508del NIH 3T3 cells, read-out: 3T3 Max Activity (%); for Emax / 3T3 Max Activity (%): efficacy compared to lumacaftor in combination with acutely added 300 nM Ivacaftor. The text has this:
a. Membrane Potential Optical Methods for Assaying F508del Modulation Properties of Compounds
The assay utilizes fluorescent voltage sensing dyes to measure changes in membrane potential using a fluorescent plate reader (e.g., FLIPR III, Molecular Devices, Inc.) as a readout for increase in functional F508del in NIH 3T3 cells. The driving force for the response is the creation of a chloride ion gradient in conjunction with channel activation by a single liquid addition step after the cells have previously been treated with compounds and subsequently loaded with a voltage sensing dye.
b. Identification of Corrector Compounds
To identify correctors of F508del, a single-addition HTS assay format was developed. This HTS assay utilizes fluorescent voltage sensing dyes to measure changes in membrane potential on the FLIPR III as a measurement for increase in gating (conductance) of F508del in F508del NIH 3T3 cells. The F508del NIH 3T3 cell cultures were incubated with the corrector compounds at a range of concentrations for 18-24 hours at 37° C., and subsequently loaded with a redistribution dye. The driving force for the response is a Cl^− ion gradient in conjunction with channel activation with forskolin in a single liquid addition step using a fluorescent plate reader such as FLIPR III.
Bath Solution #1: (in mM) NaCl 160, KCl 4.5, CaCl2 2, MgCl2 1, HEPES 10, pH 7.4 with NaOH.
Chloride-free bath solution: Chloride salts in Bath Solution #1 (above) are substituted with gluconate salts.
NIH3T3 mouse fibroblasts stably expressing F508del are used for optical measurements of membrane potential. The cells are maintained at 37° C. in 5% CO2 and 90% humidity in Dulbecco's modified Eagle's medium supplemented with 2 mM glutamine, 10% fetal bovine serum, 1×NEAA, b-ME, 1× pen/strep, and 25 mM HEPES in 175 cm^2 culture flasks. For all optical assays, the cells were seeded at ˜20,000/well in 384-well Matrigel-coated plates. For the correction assays, the cells are cultured at 37° C. with and without compounds for 16-24 hours.

The target of assay [1] is CFTR-mediated chloride transport in human intestinal epithelial enteroid cells (Homo sapiens, UniProt P13569). Put plainly: Membrane potential dye, Enteroid Assay A. The following applies: for Ent. A Max Activity (%): % of chloride transport of triple combination control (3 μM N-[(6-amino-2-pyridyl)sulfonyl]-6-(3-fluoro-5-isobutoxy-phenyl)-2-[(4S)-2,2,4-trimethylpyrrolidin-1-yl]pyridine-3-carboxamide, 3 μM tezacaftor, 300 nM acute ivacaftor); for EC50: enteroid cells, 18-24 hours incubation, acute 10 μM forskolin and 300 nM ivacaftor, read-out: Ent. A EC50. Format: cell-based. The protocol:
Base medium (ADF+++) consisted of Advanced DMEM/Ham's F12, 2 mM Glutamax, 10 mM HEPES, […] penicillin/streptomycin.
Intestinal enteroid maintenance medium (IEMM) consisted of ADF+++, 1×B27 supplement, 1×N2 supplement, 1.25 mM N-acetyl cysteine, 10 mM Nicotinamide, 50 ng/mL hEGF, 10 nM Gastrin, 1 μg/mL hR-spondin-1, 100 ng/mL hNoggin, TGF-b type 1 inhibitor A-83-01, 100 μg/mL Primocin, 10 μM P38 MAPK inhibitor SB202190.
Bath 1 Buffer consisted of 1 mM MgCl2, 160 mM NaCl, 4.5 mM KCl, 10 mM HEPES, 10 mM Glucose, 2 mM CaCl2.
Chloride Free Buffer consisted of 1 mM Magnesium Gluconate, 2 mM Calcium Gluconate, 4.5 mM Potassium Gluconate, 160 mM Sodium Gluconate, 10 mM HEPES, 10 mM Glucose.
Bath1 Dye Solution consisted of Bath 1 Buffer, 0.04% Pluronic F127, 20 μM Methyl Oxonol, 30 μM CaCCinh-A01, 30 μM Chicago Sky Blue.
Chloride Free Dye Solution consisted of Chloride Free Buffer, 0.04% Pluronic F127, 20 μM Methyl Oxonol, 30 μM CaCCinh-A01, 30 μM Chicago Sky Blue.
Chloride Free Dye Stimulation Solution consisted of Chloride Free Dye Solution, 10 μM forskolin, 100 μM IBMX, and 300 nM Compound III.
Human intestinal epithelial enteroid cells were obtained from the Hubrecht Institute for Developmental Biology and Stem Cell Research, Utrecht, The Netherlands and expanded in T-Flasks as previously described (Dekkers J F, Wiegerinck C L, de Jonge H R, Bronsveld I, Janssens H M, de Winter-de Groot K M, Brandsma A M, de Jong N W M, Bijvelds M J C, Scholte B J, Nieuwenhuis E E S, van den Brink S, Clevers H, van der Ent C K, Middendorp S and M Beekman J M. A functional CFTR assay using primary cystic fibrosis intestinal organoids. Nat Med. 2013 July; 19(7):939-45).
c. Enteroid Cell Harvesting and Seeding
Cells were recovered in cell recovery solution, collected by centrifugation at 650 rpm for 5 minutes at 4° C., resuspended in TrypLE and incubated for 5 minutes at 37° C. Cells were then collected by centrifugation at 650 rpm for 5 minutes at 4° C. and resuspended in IEMM containing 10 μM ROCK inhibitor (RI). The cell suspension was passed through a 40 μm cell strainer and resuspended at 1×10^6 cells/mL in IEMM containing 10 μM RI. Cells were seeded at 5000 cells/well into multi-well plates and incubated for overnight at 37° C., 95% humidity and 5% CO2 prior to assay.
d. Membrane Potential Dye, Enteroid Assay A
Enteroid cells were incubated with test compound in IEMM for 18-24 hours at 37° C., 95% humidity and 5% CO2. […] Briefly, cells were washed 5 times in Bath 1 Buffer. Bath 1 Dye Solution was added, and the cells were incubated for 25 minutes at room temperature. Following dye incubation, cells were washed 3 times in Chloride Free Dye Solution. Chloride transport was initiated by addition of Chloride Free Dye Stimulation Solution and the fluorescence signal was read for 15 minutes. […] Chloride transport was then expressed as a percentage of the chloride transport following treatment with 3 μM N-[(6-amino-2-pyridyl)sulfonyl]-6-(3-fluoro-5-isobutoxy-phenyl)-2-[(4S)-2,2,4-trimethylpyrrolidin-1-yl]pyridine-3-carboxamide, 3 μM (R)-1-(2,2-difluorobenzo[d][1,3]dioxol-5-yl)-N-(1-(2,3-dihydroxypropyl)-6-fluoro-2-(1-hydroxy-2-methylpropan-2-yl)-1H-indol-5-yl)cyclopropanecarboxamide and 300 nM acute N-[2,4-bis(1,1-dimethylethyl)-5-hydroxyphenyl]-1,4-dihydro-4-oxoquinoline-3-carboxamide triple combination control (% Activity).

Some results are limits rather than exact numbers.

Sequence of CFTR-mediated chloride transport in human intestinal epithelial enteroid cells (P13569 with tags, fused parts or gaps DEL508-508): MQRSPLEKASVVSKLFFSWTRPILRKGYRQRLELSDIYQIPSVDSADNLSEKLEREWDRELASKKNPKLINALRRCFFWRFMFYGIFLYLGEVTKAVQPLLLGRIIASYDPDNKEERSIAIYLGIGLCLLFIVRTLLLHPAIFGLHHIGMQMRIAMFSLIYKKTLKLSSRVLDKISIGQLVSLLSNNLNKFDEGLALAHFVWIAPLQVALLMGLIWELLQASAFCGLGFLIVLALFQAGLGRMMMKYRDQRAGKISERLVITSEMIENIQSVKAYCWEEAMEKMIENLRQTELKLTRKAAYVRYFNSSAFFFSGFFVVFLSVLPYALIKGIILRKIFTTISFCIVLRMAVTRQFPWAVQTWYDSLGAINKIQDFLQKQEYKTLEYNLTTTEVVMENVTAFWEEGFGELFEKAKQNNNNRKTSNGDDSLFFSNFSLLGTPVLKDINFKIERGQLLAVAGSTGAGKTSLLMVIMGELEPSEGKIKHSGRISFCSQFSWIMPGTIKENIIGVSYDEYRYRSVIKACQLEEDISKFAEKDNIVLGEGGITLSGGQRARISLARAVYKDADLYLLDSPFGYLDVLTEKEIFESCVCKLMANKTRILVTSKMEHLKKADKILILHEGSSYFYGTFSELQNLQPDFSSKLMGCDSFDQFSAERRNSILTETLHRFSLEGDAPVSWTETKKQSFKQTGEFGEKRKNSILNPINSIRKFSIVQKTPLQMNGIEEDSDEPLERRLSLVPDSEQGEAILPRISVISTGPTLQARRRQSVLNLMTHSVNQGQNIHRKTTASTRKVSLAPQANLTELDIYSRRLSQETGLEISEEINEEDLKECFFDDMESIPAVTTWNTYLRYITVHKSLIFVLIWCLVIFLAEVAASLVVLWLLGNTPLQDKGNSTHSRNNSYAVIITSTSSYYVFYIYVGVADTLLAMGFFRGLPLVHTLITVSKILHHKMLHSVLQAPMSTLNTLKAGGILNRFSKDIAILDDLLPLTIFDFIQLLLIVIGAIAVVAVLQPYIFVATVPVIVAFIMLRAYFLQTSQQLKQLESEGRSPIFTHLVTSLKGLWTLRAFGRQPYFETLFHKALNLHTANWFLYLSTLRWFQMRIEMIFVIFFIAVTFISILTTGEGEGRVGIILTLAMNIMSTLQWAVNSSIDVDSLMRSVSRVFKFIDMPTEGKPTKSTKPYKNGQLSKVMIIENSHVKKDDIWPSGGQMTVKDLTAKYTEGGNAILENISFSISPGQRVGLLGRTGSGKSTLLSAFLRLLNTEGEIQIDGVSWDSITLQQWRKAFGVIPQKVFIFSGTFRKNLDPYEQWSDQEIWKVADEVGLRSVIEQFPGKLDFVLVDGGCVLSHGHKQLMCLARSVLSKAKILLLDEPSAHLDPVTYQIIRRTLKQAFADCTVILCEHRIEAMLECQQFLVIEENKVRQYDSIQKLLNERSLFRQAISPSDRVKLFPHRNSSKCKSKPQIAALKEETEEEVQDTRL
T1 sequence (P13569 with tags, fused parts or gaps DEL508-508): as above

For orientation: EC50 means the concentration that produces a half-maximal response. In the case of `Cc1cccc(C)c1-c1cc2nc(n1)NS(=O)(=O)c1cccc(c1)NC(=O)[C@H]1C[C@H](CN(C(=O)OC(C)(C)C)C1)O2` (single isomer, unassigned) [Compound 1], at F508del in NIH 3T3 cells, the EC50 is less than 1 µM and the Emax lay within 30 to 60%. Moreover, the “Ent. A Max Activity (%)” value in assay [1] was “+ (+ is <30%)”.

Consider `Cc1cccc(C)c1-c1cc2nc(n1)NS(=O)(=O)c1cccc(c1)NC(=O)[C@@H]1C[C@@H](CN(C(=O)OC(C)(C)C)C1)O2` (single isomer, unassigned) [Compound 2], for which, at F508del in NIH 3T3 cells, the EC50 is less than 1 µM and the Emax was greater than 60%. Also, in assay [1], the “Ent. A Max Activity (%)” value is recorded as “+++ (+++ is >60%)” and the concentration for a half-maximal effect (EC50) is less than 1 µM.

Regarding `Cc1cccc(C)c1-c1cc2nc(n1)NS(=O)(=O)c1cccc(c1)NC(=O)[C@@H]1C[C@H](CN(C(=O)OC(C)(C)C)C1)O2` (single isomer, unassigned) [Compound 3], on F508del in NIH 3T3 cells, the EC50 fell in the range of 1 to 3 µM and the Emax is greater than 60%. Also, in assay [1], the “Ent. A Max Activity (%)” value is listed as “+ (+ is <30%)” and the EC50 fell in the range of 1 to 3 µM.

As to `Cc1cccc(C)c1-c1cc2nc(n1)NS(=O)(=O)c1cccc(c1)NC(=O)[C@H]1CCC[C@H](C1)O2` (single isomer, unassigned) [Compound 68, 5-(2,6-dimethylphenyl)-9,9-dioxo-2-oxa-9λ^6-thia-6,8,15,23-tetraazatetracyclo[15.3.1.13,7.110,14]tricosa-3,5,7(23),10(22),11,13-hexaen-16-one], at F508del in NIH 3T3 cells, the EC50 is less than 1 µM and the Emax was greater than 60%. In addition, in assay [1], the “Ent. A Max Activity (%)” value is “++ (++ is 30-60%)” and the concentration giving a half-maximal response (EC50) lay within 3 to 30 µM.

Regarding `Cc1cccc(C)c1-c1cc2nc(n1)NS(=O)(=O)c1cccc(c1)NC(=O)[C@H]1CCC[C@H](C1)O2` (single isomer, unassigned) [Compound 69, 5-(2,6-dimethylphenyl)-9,9-dioxo-2-oxa-9λ^6-thia-6,8,15,23-tetraazatetracyclo[15.3.1.13,7.110,14]tricosa-3,5,7(23),10(22),11,13-hexaen-16-one], at F508del in NIH 3T3 cells, the 50% effective concentration (EC50) was less than 1 µM and the “3T3 Max Activity (%)” value is “+++ (+++ is >60%)”. Also, in assay [1], the “Ent. A Max Activity (%)” value is given as “++ (++ is 30-60%)” and the concentration giving a half-maximal response (EC50) was in the range of 1 to 3 µM.

As for `Cc1cccc(C)c1-c1cc2nc(n1)NS(=O)(=O)c1cccc(c1)NC(=O)[C@H]1CCC[C@H](C1)O2` (single isomer, unassigned) [Compound 70, 5-(2,6-Dimethylphenyl)-9,9-dioxo-2-oxa-9λ^6-thia-6,8,15,23-tetraazatetracyclo[15.3.1.13,7.110,14]tricosa-3,5,7(23),10(22),11,13-hexaen-16-one], on F508del in NIH 3T3 cells, the concentration for a half-maximal effect (EC50) lay in the range of 1 to 3 µM and the “3T3 Max Activity (%)” value is reported as “+++ (+++ is >60%)”. Also, in assay [1], the “Ent. A Max Activity (%)” value was “++ (++ is 30-60%)” and the EC50 fell in the range of 1 to 3 µM.

`Cc1cccc(C)c1-c1cc2nc(n1)NS(=O)(=O)c1cccc(c1)NC(=O)[C@H]1CCC[C@H](C1)O2` (single isomer, unassigned) [Compound 71, 5-(2,6-dimethylphenyl)-9,9-dioxo-2-oxa-9λ^6-thia-6,8,15,23-tetraazatetracyclo[15.3.1.13,7.110,14]tricosa-3,5,7(23),10(22),11,13-hexaen-16-one]: on F508del in NIH 3T3 cells, the EC50 was in the range of 1 to 3 µM and the “3T3 Max Activity (%)” value is recorded as “+++ (+++ is >60%)”. Besides, in assay [1], the “Ent. A Max Activity (%)” value was “+++ (+++ is >60%)” and the half-maximal effective concentration (EC50) fell in the range of 1 to 3 µM.

As for `CCCCCCN1C[C@@H]2C[C@H](C1)C(=O)Nc1cccc(c1)S(=O)(=O)Nc1nc(cc(-c3c(C)cccc3C)n1)O2` [Compound 41], in assay [1], the “Ent. A Max Activity (%)” value is recorded as “+++ (+++ is >60%)” and the half-maximal effective concentration (EC50) is less than 1 µM.

For `Cc1cccc(C)c1-c1cc2nc(n1)NS(=O)(=O)c1cccc(c1)NC(=O)C1CN(C(=O)OC(C)(C)C)CCC1O2` (stereo not drawn) [Compound 78], in assay [1], the “Ent. A Max Activity (%)” value was “++ (++ is 30-60%)” and the EC50 lay in the range of 1 to 3 µM.

`Cc1cccc(C)c1-c1cc2nc(n1)NS(=O)(=O)c1cccc(c1)NC(=O)[C@H]1C[C@H](CN1C(=O)OC(C)(C)C)O2` [Compound 79]: the “Ent. A Max Activity (%)” value in assay [1] is recorded as “+ (+ is <30%)”.

With `Cc1cccc(C)c1-c1cc2nc(n1)NS(=O)(=O)c1cccc(c1)NC(=O)[C@@H]1C[C@@H](CN1C(=O)OC(C)(C)C)O2` [Compound 80], the “Ent. A Max Activity (%)” value in assay [1] is listed as “+ (+ is <30%)”.

Turning to `Cc1cccc(C)c1-c1cc2nc(n1)NS(=O)(=O)c1cccc(c1)NC(=O)[C@@H]1C[C@H](O2)C(=O)N(CCC(C)(C)C)C1` [Compound 88], in assay [1], the “Ent. A Max Activity (%)” value is “++ (++ is 30-60%)” and the EC50 lay in the range of 3 to 30 µM.

In the case of `Cc1cccc(C)c1-c1cc2nc(n1)NS(=O)(=O)c1cccc(c1)NC(=O)[C@@H]1C[C@H](O2)C(=O)N(CCC(C)(C)C)C1` [Compound 89], in assay [1], the “Ent. A Max Activity (%)” value is given as “+ (+ is <30%)”.

As to `Cc1cccc(C)c1-c1cc2nc(n1)NS(=O)(=O)c1cccc(c1)NC(=O)[C@@H]1C[C@H](O2)C(=O)N(CCC(C)(C)C)C1` [Compound 90], in assay [1], the “Ent. A Max Activity (%)” value is given as “++ (++ is 30-60%)” and the 50% effective concentration (EC50) lay in the range of 3 to 30 µM.

With `Cc1cccc(C)c1-c1cc2nc(n1)NS(=O)(=O)c1cccc(c1)NC(=O)[C@@H]1C[C@H](O2)C(=O)N(CCC(C)(C)C)C1` [Compound 91], in assay [1], the “Ent. A Max Activity (%)” value is recorded as “+ (+ is <30%)” and the EC50 lay within 3 to 30 µM.

As for `Cc1cccc(C)c1-c1cc2nc(n1)NS(=O)(=O)c1cccc(c1)NC(=O)C1CC(O2)C(=O)N(CCC(C)(C)C)C1` (stereo not drawn) [Compound 92], the “Ent. A Max Activity (%)” value in assay [1] is “+ (+ is <30%)”.

As to `Cc1cccc(C)c1-c1cc2nc(n1)NS(=O)(=O)c1cccc(c1)NC(=O)C1CC(O2)C(=O)N(CCC(C)(C)C)C1` (stereo not drawn) [Compound 93], in assay [1], the “Ent. A Max Activity (%)” value is on record as “++ (++ is 30-60%)”.

Values taken from patent US20230416275A1, “MODULATORS OF CYSTIC FIBROSIS TRANSMEMBRANE CONDUCTANCE REGULATOR” (VERTEX PHARMACEUTICALS INCORPORATED, priority 2020, published 2023).
